Test results reported in the NIST ThermoML archive (doi:10.1007/s10765-005-8592-5).
“And” between values parts separate entries of the source, which are not always exact repeats. Equal entries are not always repeated. ± gives the expanded uncertainty stated by the source.

What was measured:
[1] = xn = mol fraction of the nth substance listed; conditions: Fluid (supercritical or subcritical phases), isochoric method
[2] = molar heat capacity at constant volume; xn = mol fraction of the nth substance listed; conditions: Fluid (supercritical or subcritical phases), Vacuum adiabatic calorimetry

CCC [propane] + CC(C)C
x1 = 1
Conditions	mass density, [1] [kg/m3]	molar heat capacity at constant volume, [2] [J/K/mol]
270.15 K, 4427 kPa	539.9 ± 0.9	71.74 ± 0.22
275.15 K, 7953 kPa	539.6 ± 0.9	71.26 ± 0.22
280.15 K, 11458 kPa	539.3 ± 0.9	71.3 ± 0.22
285.15 K, 14939 kPa	539 ± 0.9	72.63 ± 0.22
290.15 K, 18398 kPa	538.7 ± 0.9	73.46 ± 0.22
295.15 K, 21836 kPa	538.4 ± 0.9	74.57 ± 0.22
300.15 K, 25251 kPa	538.1 ± 0.9	74.61 ± 0.22
305.15 K, 28640 kPa	537.8 ± 0.9	74.35 ± 0.22
310.15 K, 6561 kPa	490.3 ± 0.8	74.57 ± 0.22
315.15 K, 9049 kPa	490.1 ± 0.8	75.23 ± 0.22
320.15 K, 11532 kPa	489.8 ± 0.8	76.15 ± 0.22
325.15 K, 3660 kPa	454.8 ± 0.7	77.96 ± 0.22
325.15 K, 14008 kPa	489.6 ± 0.8	76.37 ± 0.22
330.15 K, 5594 kPa	454.6 ± 0.7	78.75 ± 0.22
330.15 K, 16475 kPa	489.3 ± 0.8	76.64 ± 0.22
335.15 K, 7530 kPa	454.3 ± 0.7	78.31 ± 0.22
335.15 K, 18934 kPa	489.1 ± 0.8	76.9 ± 0.22
340.15 K, 9468 kPa	454.1 ± 0.7	77.7 ± 0.22
340.15 K, 21386 kPa	488.9 ± 0.8	77.21 ± 0.22
345.15 K, 11404 kPa	453.9 ± 0.7	77.26 ± 0.22
345.15 K, 23827 kPa	488.6 ± 0.8	76.33 ± 0.22
350.15 K, 13339 kPa	453.7 ± 0.7	79.46 ± 0.22
350.15 K, 26253 kPa	488.4 ± 0.8	77.52 ± 0.22
355.15 K, 15273 kPa	453.5 ± 0.7	77.39 ± 0.22
355.15 K, 28668 kPa	488.2 ± 0.8	77.43 ± 0.22
360.15 K, 17203 kPa	453.3 ± 0.7	77.74 ± 0.22
365.15 K, 19126 kPa	453.1 ± 0.7	78.62 ± 0.22
370.15 K, 21044 kPa	452.9 ± 0.7	79.15 ± 0.22
375.15 K, 5095 kPa	301.1 ± 0.5	98.6 ± 0.26
380.15 K, 5744 kPa	301 ± 0.5	93.04 ± 0.26
385.15 K, 6404 kPa	300.9 ± 0.5	89.6 ± 0.26
390.15 K, 7072 kPa	300.8 ± 0.5	86.07 ± 0.26
395.15 K, 7746 kPa	300.7 ± 0.5	84.84 ± 0.26
400.15 K, 8425 kPa	300.6 ± 0.5	80.43 ± 4.6
405.15 K, 9109 kPa	300.5 ± 0.5	78.84 ± 11
410.15 K, 9795 kPa	300.4 ± 0.5	79.99 ± 0.22
420.15 K, 11176 kPa	300.2 ± 0.5	79.81 ± 0.22
425.15 K, 11869 kPa	300.1 ± 0.5	81.75 ± 0.22

CC(C)C [2-methylpropane] + CCC
Conditions	mass density, [1] [kg/m3]	molar heat capacity at constant volume, [2]
270.15 K, 4579 kPa, x2 = 0.498	566.8 ± 0.9	82.79 ± 0.26 J/K/mol
275.15 K, 8198 kPa, x2 = 0.498	566.3 ± 0.9	81.61 ± 0.26 J/K/mol
280.15 K, 11759 kPa, x2 = 0.498	565.9 ± 0.9	82.79 ± 0.26 J/K/mol
285.15 K, 15256 kPa, x2 = 0.498	565.5 ± 0.9	84.27 ± 0.26 J/K/mol
290.15 K, 18687 kPa, x2 = 0.498	565.1 ± 0.9	85.14 ± 0.26 J/K/mol
295.15 K, 22038 kPa, x2 = 0.498	564.8 ± 0.9	85.81 ± 0.26 J/K/mol
300.15 K, 25302 kPa, x2 = 0.498	564.5 ± 0.9	87.7 ± 0.26 J/K/mol
305.15 K, 28471 kPa, x2 = 0.498	564.2 ± 0.9	89.64 ± 0.26 J/K/mol
315.15 K, 9748 kPa, x2 = 0.498	524.3 ± 0.8	89.39 ± 0.26 J/K/mol
320.15 K, 12415 kPa, x2 = 0.498	523.9 ± 0.8	91.23 ± 0.26 J/K/mol
325.15 K, 15069 kPa, x2 = 0.498	523.6 ± 0.8	92.35 ± 0.26 J/K/mol
330.15 K, 17709 kPa, x2 = 0.498	523.3 ± 0.8	91.89 ± 0.26 J/K/mol
335.15 K, 20336 kPa, x2 = 0.498	523 ± 0.8	93.07 ± 0.26 J/K/mol
340.15 K, 22950 kPa, x2 = 0.498	522.8 ± 0.8	92.66 ± 0.26 J/K/mol
345.15 K, 25550 kPa, x2 = 0.498	522.5 ± 0.8	92.4 ± 0.26 J/K/mol
350.15 K, 7962 kPa, x2 = 0.498	471.7 ± 0.8	93.89 ± 0.26 J/K/mol
350.15 K, 28136 kPa, x2 = 0.498	522.3 ± 0.8	93.22 ± 0.26 J/K/mol
355.15 K, 9814 kPa, x2 = 0.498	471.4 ± 0.8	93.73 ± 0.26 J/K/mol
360.15 K, 11663 kPa, x2 = 0.498	471.2 ± 0.8	93.73 ± 0.26 J/K/mol
365.15 K, 13509 kPa, x2 = 0.498	470.9 ± 0.8	93.22 ± 0.26 J/K/mol
370.15 K, 15351 kPa, x2 = 0.498	470.7 ± 0.8	94.71 ± 0.26 J/K/mol
375.15 K, 17187 kPa, x2 = 0.498	470.5 ± 0.8	94.19 ± 0.26 J/K/mol
380.15 K, 19017 kPa, x2 = 0.498	470.2 ± 0.8	95.06 ± 0.26 J/K/mol
380.15 K, 20994 kPa, x2 = 0.756	458.6 ± 0.7	88.38 ± 0.24 J/K/mol
385.15 K, 4713 kPa, x2 = 0.756	279.9 ± 0.5	150.35 ± 0.43 J/K/mol
385.15 K, 22824 kPa, x2 = 0.756	458.4 ± 0.7	90.71 ± 0.24 J/K/mol
390.15 K, 5229 kPa, x2 = 0.756	279.8 ± 0.5	127.92 ± 0.38 J/K/mol
390.15 K, 22647 kPa, x2 = 0.498	469.8 ± 0.8	97.67 ± 0.26 J/K/mol
395.15 K, 4489 kPa, x2 = 0.498	274.1 ± 0.5	183.94 ± 0.41 J/K/mol
395.15 K, 5756 kPa, x2 = 0.756	279.7 ± 0.5	116.61 ± 0.33 J/K/mol
400.15 K, 4949 kPa, x2 = 0.498	274 ± 0.5	160.01 ± 0.41 J/K/mol
400.15 K, 6290 kPa, x2 = 0.756	279.6 ± 0.5	105.82 ± 0.29 J/K/mol
405.15 K, 5419 kPa, x2 = 0.498	273.9 ± 0.5	144.56 ± 0.36 J/K/mol
405.15 K, 6830 kPa, x2 = 0.756	279.6 ± 0.5	101.36 ± 0.29 J/K/mol
410.15 K, 5896 kPa, x2 = 0.498	273.8 ± 0.5	131.68 ± 0.31 J/K/mol
410.15 K, 7375 kPa, x2 = 0.756	279.5 ± 0.5	96.37 ± 0.29 J/K/mol
415.15 K, 4254 kPa, x2 = 0	273.8 ± 0.7	230.8 ± 1.3 J/K/mol and 222.08 ± 0.99 J/K/mol
415.15 K, 6379 kPa, x2 = 0.498	273.7 ± 0.5	124.31 ± 0.31 J/K/mol
415.15 K, 7922 kPa, x2 = 0.756	279.4 ± 0.5	93.23 ± 0.24 J/K/mol
420.15 K, 4664 kPa, x2 = 0	273.7 ± 0.4	202.67 ± 0.58 J/K/mol
420.15 K, 4665 kPa, x2 = 0	273.8 ± 0.4	202.96 ± 0.58 J/K/mol
420.15 K, 6865 kPa, x2 = 0.498	273.6 ± 0.5	115.11 ± 0.31 J/K/mol
420.15 K, 8472 kPa, x2 = 0.756	279.3 ± 0.5	90.85 ± 0.24 J/K/mol
425.15 K, 5082 kPa, x2 = 0	273.7 ± 0.5	186.05 ± 3 J/K/mol
425.15 K, 5083 kPa, x2 = 0	273.7 ± 0.5	187.1 ± 3.8 J/K/mol
425.15 K, 7354 kPa, x2 = 0.498	273.6 ± 0.5	109.18 ± 0.31 J/K/mol
